Several values for one entry are separate records, joined by “and”; a condition that tells them apart may be missing. Identical values can stand only once.
What was measured:
HDAC7 = target: T1, HDAC7 (Homo sapiens, UniProt Q8WUI4); test: HDAC assay (Eurofins); format: biochemical
T1 construct: purchased Eurofins (contracted assay service)
T1 sequence (Q8WUI4 1-952): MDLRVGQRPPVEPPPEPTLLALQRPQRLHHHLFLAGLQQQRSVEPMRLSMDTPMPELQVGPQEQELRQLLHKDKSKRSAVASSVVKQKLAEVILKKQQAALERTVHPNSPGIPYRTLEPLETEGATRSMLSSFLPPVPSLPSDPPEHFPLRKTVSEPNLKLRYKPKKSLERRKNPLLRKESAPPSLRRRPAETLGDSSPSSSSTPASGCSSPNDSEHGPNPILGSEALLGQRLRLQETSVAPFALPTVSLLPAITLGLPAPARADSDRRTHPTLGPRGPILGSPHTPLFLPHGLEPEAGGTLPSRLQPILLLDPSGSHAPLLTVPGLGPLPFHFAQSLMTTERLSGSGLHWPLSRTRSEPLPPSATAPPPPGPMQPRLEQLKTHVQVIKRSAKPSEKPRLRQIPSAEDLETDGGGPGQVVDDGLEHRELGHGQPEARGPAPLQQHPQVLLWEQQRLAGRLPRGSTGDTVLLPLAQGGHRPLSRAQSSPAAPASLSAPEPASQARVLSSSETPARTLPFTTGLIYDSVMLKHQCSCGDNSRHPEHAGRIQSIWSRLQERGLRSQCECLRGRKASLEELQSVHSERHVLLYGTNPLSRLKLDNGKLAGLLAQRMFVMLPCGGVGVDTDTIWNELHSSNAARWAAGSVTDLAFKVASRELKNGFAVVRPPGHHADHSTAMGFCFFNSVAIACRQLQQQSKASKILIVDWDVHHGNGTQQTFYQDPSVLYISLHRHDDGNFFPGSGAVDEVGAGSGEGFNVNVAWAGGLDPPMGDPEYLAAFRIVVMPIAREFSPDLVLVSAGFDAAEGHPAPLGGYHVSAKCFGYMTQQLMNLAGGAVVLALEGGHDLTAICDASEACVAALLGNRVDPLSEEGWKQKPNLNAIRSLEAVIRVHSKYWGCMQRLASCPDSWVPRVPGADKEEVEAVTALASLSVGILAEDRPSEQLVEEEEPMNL

[1] = tested on: HL-60, ML-2, MOLM-13 and MV4-11; test: γ-H2AX immunofluorescence (DNA damage); format: cell-based; details: daily treatment 48 hours, four AML cell lines
Method: authors should analyze this e.g by gH2AX immunofluorescence staining.
As positive control, HL-60 cells irradiated with an acute dose of 30 J/m2 UV for 2 minutes were
(see Reviewer Figure 22).

hERG potassium channels = target: T2, hERG potassium channels (Homo sapiens, UniProt Q12809); test: hERG blockade assay (whole-cell patch clamp, CHO cells); format: cell-based
T2 construct: host or cells: CHO cells
T2 sequence (Q12809 whole entry): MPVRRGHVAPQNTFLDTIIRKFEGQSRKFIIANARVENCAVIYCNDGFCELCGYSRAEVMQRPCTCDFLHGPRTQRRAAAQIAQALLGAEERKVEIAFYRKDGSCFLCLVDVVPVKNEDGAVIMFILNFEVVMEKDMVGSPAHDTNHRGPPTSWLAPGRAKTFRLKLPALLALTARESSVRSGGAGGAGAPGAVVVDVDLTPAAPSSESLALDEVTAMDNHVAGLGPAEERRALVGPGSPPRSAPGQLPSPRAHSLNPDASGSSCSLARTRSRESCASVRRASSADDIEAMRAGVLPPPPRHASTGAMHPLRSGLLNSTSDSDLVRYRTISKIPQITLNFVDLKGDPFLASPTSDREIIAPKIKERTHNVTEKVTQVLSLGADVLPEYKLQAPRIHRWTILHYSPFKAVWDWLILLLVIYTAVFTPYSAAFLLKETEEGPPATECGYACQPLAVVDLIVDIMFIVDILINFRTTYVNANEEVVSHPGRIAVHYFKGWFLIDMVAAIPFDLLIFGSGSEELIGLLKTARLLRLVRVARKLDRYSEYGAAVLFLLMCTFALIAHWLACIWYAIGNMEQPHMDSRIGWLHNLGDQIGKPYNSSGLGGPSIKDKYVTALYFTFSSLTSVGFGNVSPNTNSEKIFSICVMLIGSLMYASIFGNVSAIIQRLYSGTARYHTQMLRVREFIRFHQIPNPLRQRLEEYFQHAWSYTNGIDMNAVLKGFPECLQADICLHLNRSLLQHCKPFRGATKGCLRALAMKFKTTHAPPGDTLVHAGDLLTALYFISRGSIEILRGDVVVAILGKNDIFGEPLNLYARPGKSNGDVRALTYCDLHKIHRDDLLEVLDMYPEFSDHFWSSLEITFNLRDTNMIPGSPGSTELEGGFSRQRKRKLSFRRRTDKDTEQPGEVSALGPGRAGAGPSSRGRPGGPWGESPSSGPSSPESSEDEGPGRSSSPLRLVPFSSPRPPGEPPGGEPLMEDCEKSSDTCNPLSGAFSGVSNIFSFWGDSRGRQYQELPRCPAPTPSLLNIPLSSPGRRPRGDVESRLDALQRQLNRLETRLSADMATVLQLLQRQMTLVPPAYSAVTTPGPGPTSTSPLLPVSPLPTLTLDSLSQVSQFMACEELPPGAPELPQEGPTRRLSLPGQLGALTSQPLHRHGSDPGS
Method: This study was conducted at Wuxi (http://www.wuxi.com/), using CHO cells with stable expression of hERG potassium channels (Sophion Biosciences, Ballerup, Denmark). Cells were cultured (F12 medium, supplemented with 10% FBS, 1% Geneticin® selective antibiotic, 89 μg/mL hygromycin B) in a humidified and air-controlled (5% CO2) incubator at 37 °C ± 2 °C. Test compounds were diluted at different concentrations (0.3 μM–30μM), with a final DMSO concentration in an extracellular solution of <0.3%. The external solution consisted of 2 mM CaCl2, 1 mM MgCl2, 4 mM KCl, 145 mM NaCl, 10 mM glucose and 10 mM HEPES at pH 7.3–7.4. The internal solution consisted of 5.37 mM CaCl2, 1.75 mM MgCl2, 120 mM KCl, 10 mM HEPES, 5 mM EGTA and 4 mM Na2ATP at pH 7.2–7.3. The assay was performed at room temperature using the whole-cell patch clamp techniques controlled with Patchmaster Pro software. For quality control, minimum seal membrane resistance was set at 500 MOhms and the minimum/maximum specific hERG current (pre-compound) was 400 pA/3000 pA. A 100-nM amount of cisapride was used as the positive control to evaluate the reliability of the test system. Results are the average of two biological replicates.

[2] = tested on: ML-2 xenograft in BALB/cA Rag2-/-γc-/- mice; test: Subcutaneous xenograft model (tumor volume, CD11b q-PCR, H3Ac, body weight); format: in vivo, mouse; details: for Tumor volume: ML-2 subcutaneous xenograft, individual mice (Fig 3B); for body weight of mice: subcutaneous ML-2 AML mouse model, individual mice
Method: (§1) The subcutaneous xenograft models of ML-2 and MV4-11 derived cells, 5 × 10^6 and 10 × 10^6 cells, respectively, diluted in 100 µL of saline solution were subcutaneously inoculated in the back left flank of female BALB/cA Rag2^−/−γc^−/− mice. When tumors became palpable, the mice were randomized into three groups: vehicle, CM-444 and CM-1758, (eight animals/group). Treatment with 10 mg/kg of CM-444 or CM-1758 i.p. was started 4 days after injection when all mice presented subcutaneous tumors and was administered for 5 consecutive days followed by 2 resting days over 3 weeks for the ML-2 model or daily for 2 weeks for the MV4-11 model. The control group received only 80% saline solution, 10% DMSO […] 10% Tween 20 (diluents of CM-444 and CM-1758). Tumor size was analyzed every 2–3 days using the following method: […], where D and d corresponded to the longest and shortest diameter, respectively. The maximal tumor size/burden permitted by the Animal Care and Ethics Committee of the University of Navarra is 2000 mm^3. This maximal tumor size/burden was not exceeded in any case. ML-2 and MV4-11 tumors were explanted for differentiation and global histone acetylation analysis. Histones were extracted, and a western blot of H3Ac was performed as described above. For the differentiation study, RNA was extracted, and q-PCR of CD11b was performed as described above (CD11b sequence primer can be found in Supplementary Table 10).

[3] = tested on: MV4-11 xenograft in BALB/cA Rag2-/-γc-/- mice; test: as above; format: in vivo, mouse; details: for Tumor volume: MV4-11 subcutaneous xenograft, in mm³; for Tumor volume / body weight of mice: individual mice; for body weight of mice: subcutaneous MV4-11 AML mouse model
Method: as §1

What does the source list for `COc1cc2nc(-c3ccc(C)o3)cc(NCC3CCN(c4ncc(C(=O)NO)cn4)CC3)c2cc1OC` [CM-444, 2-[4-[[[6,7-dimethoxy-2-(5-methyl-2-furyl)-4-quinolyl]amino]methyl]-1-piperidyl]pyrimidine-5-carbohydroxamic acid]?
IC50 (HDAC7): 0.12 µM; inhibition at 10 µM (HDAC7; 10 µM): 89%; DNA damage (γ-H2AX) [1]: do not induced DNA damage; hERG hill slope (hERG potassium channels): 1.33; IC50 (hERG potassium channels; read-out: hERG binding: IC50): 16.8 µM; CD11b expression in explanted tumors ([2]; ML-2 s.c., 10 mg/kg i.p.): significant increase in CD11b expression; H3Ac levels in tumors ([2]; ML-2 s.c., 10 mg/kg i.p.): increase in H3Ac levels; tumor growth ([2]; ML-2 s.c., 10 mg/kg i.p., 5 days on/2 off, 3 weeks): inhibited tumor growth significantly; Tumor volume ([2]; day 0, in mm³): 0; Tumor volume ([2]; day 8): 50.29 and 0 (2×) and 44.4222 and 26.1593 and 17.7985 and 33.6927 and 34.1731; Tumor volume ([2]; day 11, in mm³): 57.5494 and 54.0642 and 29.9608 and 34.453 and 70.3613 and 12.6567 and 13.356 and 62.0802; Tumor volume ([2]; day 13, in mm³): 71.0807 and 75.9644 and 34.9942 and 17.4964 and 64.0599 and 59.7475 and 31.61 and 81.1976; Tumor volume ([2]; day 15, in mm³): 260.999 and 204.675 and 90.5639 and 88.4341 and 135.48 and 171.734 and 101.038 and 206.002; Tumor volume ([2]; day 18, in mm³): 480.691 and 730.912 and 126.029 and 148.778 and 375.191 and 457.823 and 357.768 and 468.956; Tumor volume ([2]; day 20, in mm³): 765.508 and 824.168 and 527.843 and 397.65 and 611.294 and 688.039 and 576.047 and 641.268; Relative H3Ac/H3 total levels ([2]; after in vivo treatment, subcutaneous ML-2 mouse model, western blot, individual tumors): 1.215 and 1.184 and 2.112 and 1.745 and 1.414 and 2.588; body weight of mice ([2]; day 4, in g (unit assumed)): 25.5 and 22.7 and 24.1 and 24.4 and 23.6 and 21.4 and 26.1 and 23.7; body weight of mice ([2]; day 6, in g (unit assumed)): 24.2 and 22.1 and 23.5 and 23 and 22.4 and 20.6 and 24.7 and 22.8; body weight of mice ([2]; day 8): 23 and 21.7 (2×) and 22.6 and 22.9 and 19.8 and 23.2 and 21.8; body weight of mice ([2]; day 11, in g (unit assumed)): 25 and 22 and 24 and 24.2 and 22.6 and 21.1 and 24.3 and 21.9; body weight of mice ([2]; day 13, in g (unit assumed)): 24.5 and 21.9 and 23.2 and 22.6 and 22.9 and 21.2 and 24.7 and 22.3; body weight of mice ([2]; day 15): 24.9 and 22.5 and 22.9 and 22.2 (2×) and 21.3 and 24.8 and 22.1; body weight of mice ([2]; day 18, in g (unit assumed)): 24.7 and 23.2 and 23.6 and 22 and 23 and 21.6 and 24.9 and 23.5; body weight of mice ([2]; day 20): 24.4 and 23.5 and 23.1 (2×) and 20.8 and 21.2 and 25.5 and 23.3; CD11b expression from tumors measured by q-PCR ([2]; tumors of the subcutaneous ML-2 model, individual tumors (Fig 3C)): 4.258 log10 (2-ΔΔCt) and 6.115 log10 (2-ΔΔCt) and 1.258 log10 (2-ΔΔCt) and 2.581 log10 (2-ΔΔCt) and 3.258 log10 (2-ΔΔCt); CD11b expression in explanted tumors ([3]; MV4-11 s.c., 10 mg/kg i.p.): significant increase in CD11b expression; H3Ac levels in tumors ([3]; MV4-11 s.c., 10 mg/kg i.p.): increase in H3Ac levels; tumor growth ([3]; MV4-11 s.c., 10 mg/kg i.p. daily, 2 weeks): very close to significance; Tumor volume ([3]; day 0): 0; Tumor volume ([3]; day 7): 3.193; Tumor volume ([3]; day 9): 111.805 and 139.808 and 128.905 and 58.5153 and 61.4614 and 71.8536 and 82.1349 and 57.0445 and 0 and 108.84; Tumor volume ([3]; day 12): 294.457 and 409.686 and 535.985 and 179.87 and 403.211 and 161.575 and 360.839 and 457.558 and 8.3776 and 264.463; Tumor volume ([3]; day 14): 459.841 and 410.79 and 840.745 and 257.398 and 607.597 and 355.301 and 487.51 and 302.43 and 18.6928 and 395.414; Relative H3Ac/H3 total levels ([3]; after in vivo treatment, subcutaneous MV4-11 mouse model, western blot, individual tumors): 0.9852 and 1.143 and 1.277 and 1.092 and 1.163 and 1.09; body weight of mice ([3]; day 1): 21.9 and 20.2 and 23.1 and 24.4 (2×) and 23 and 20.9 and 24.3 and 21.3 and 23.6; body weight of mice ([3]; day 5, in g (unit assumed)): 20.4 and 18.7 and 20.7 and 21.6 and 21.5 and 19 and 21.7 and 18.8 and 21.2 and 21; body weight of mice ([3]; day 7): 20.3 and 18.1 and 19.6 (2×) and 20.5 and 18.3 and 21.6 and 18.4 and 21 and 20.7; body weight of mice ([3]; day 9): 20.7 (2×) and 19.1 (2×) and 20.2 and 19.2 and 20.4 (2×) and 18.9 and 20.6; body weight of mice ([3]; day 12): 22.2 (2×) and 19.1 and 21.6 and 20 and 22.4 and 20.6 and 23 and 20.1 and 22.6; body weight of mice ([3]; day 14): 22.1 (2×) and 19.1 and 20.3 and 22.6 (3×) and 20.9 and 23.1 and 19.5; body weight of mice ([3]; day 16): 21 (2×) and 19.6 and 22 and 21.9 and 20.1 and 24.8 and 20.6 and 22.3 (2×); CD11b expression, log10 (2-ΔΔCt) ([3]; tumors of the subcutaneous MV4-11 model, q-PCR, individual tumors): 1.258 and 2.58 and 3.158 and 0.925

From paper PMC11219871, “Epigenetic-based differentiation therapy for Acute Myeloid Leukemia” (Nature Communications, 2024)
